{"source": "paper PMC9561728", "about": "“Safety and efficacy of a GLP-1 and glucagon receptor dual agonist mazdutide (IBI362) 9 mg and 10 mg in Chinese adults with overweight or obesity: A randomised, placebo-controlled, multiple-ascending-dose phase 1b trial” (eClinicalMedicine, 2022)", "key": {"[1]": {"system": "Chinese adults with overweight or obesity", "test": "HbA1c and metabolic parameters, phase 1b trial", "type": "in vivo, human", "protocol": "(§1) Secondary outcomes included pharmacokinetics, assessed by maximum observed plasma concentration (Cmax), time at which Cmax was observed (Tmax), terminal elimination half-life (t½), and area under the curve from time zero to 168 h after the first dose (AUC0–168 h) and immunogenicity, assessed by titters of anti-drug antibodies (ADAs) and neutralizing antibodies. Secondary efficacy outcomes included the change from baseline to week 12 (9 mg cohort) or week 16 (10 mg cohort) in body weight, waist circumference, BMI, as well as the change from baseline in HbA1c, lipids, transaminase and serum uric acid levels.\nSummaries for other efficacy and safety variables included descriptive statistics for continuous measures (mean and standard deviation or standard error) and for categorical measures (sample size, frequency and percentages)."}, "[2]": {"system": "Chinese adults with overweight or obesity", "test": "Treatment-emergent adverse events, phase 1b trial, 9 mg and 10 mg cohorts", "details": "n = 8", "procedure": "(§19) The study included a 3-week screening period, a 12-week or 16-week treatment period and an 8-week safety follow-up period. During the treatment period, mazdutide or placebo was subcutaneously administered once weekly with one of the following dose-escalation regimens: 9 mg cohort (3 mg weeks 1-4; 6 mg weeks 5-8; 9 mg weeks 9-12) and 10 mg cohort (2.5 mg weeks 1-4; 5 mg weeks 5-8; 7.5 mg weeks 9-12; 10 mg weeks 13-16) (Figure S1). The escalation regimen in the 10 mg cohort provided relatively slower titration (2.5 mg every 4 weeks) to the target dose of 10 mg, and the escalation regimen in the 9 mg cohort adopted faster titration (3 mg every 4 week). Participants were required to maintain the original diet, exercise and lifestyle during the trial.\n(§20) The primary outcomes were safety and tolerability of mazdutide. […] The severity of the TEAEs (mild, moderate or severe) and the association between an event and the study drug was assessed by investigators based on pre-specified criteria.\n(§21) Safety analyses were done in the safety population (defined as all participants who received at least one dose of the study treatment)."}, "[3]": {"test": "Non-compartmental plasma pharmacokinetics, phase 1b trial", "type": "in vivo", "details": "human; for AUC(0-t) / Cmax: geometric mean (CV%); for AUC(0-t): n = 8, read-out: AUC0-168h; for Tmax: median (range); for Tmax / Cmax: n = 8; for Cmax: non-compartmental", "excerpt": "6.3 PK/ PD assessment vari ables\n6.3.1 PK Sample Collection\nPK sampling will be performed according to the Schedule of Visits (Table 2, Table 4, Table 6), PK/PD Sampling Schedule (Table 3- 1, Table 3- 2, Table 5-1, Table 5- 2, Table 7-1, Table 7- 2), and ex aminations will be performed at a central laborator y. 3 m L of whole blood was collected into a […] vacutainer, plasma was separated, aliquoted and stored frozen for PK analysis of IBI362. Details of sampling methods, sample storage, transportation and analysis were provided in the Laboratory Manual provided by the central laboratory designated by the sponsor. […]\n• Pharmacokinetic parameters, including but not limited to Tmax, Cmax, product under the concentration- time curve (AUC), volum e of distribution (Vd), half-life (T1/2), clearan ce (C L) an d accumulation co efficient (AR); […]"}, "[4]": {"system": "Chinese adults with overweight or obesity", "details": "in vivo", "procedure": "as §19, §20, §21"}, "[5]": {"test": "Solubility of the study drug", "type": "physicochemical", "details": "study protocol", "protocol": "(§2) 5.2.1 Physical and chemical characteristi cs of the study drug\n(§3) Molecular Weight: 4560.32 Daltons\n(§4) Description: White to off-white powder\n(§5) Solubility: Solvent: 20 mM Tris buffer at pH 8.0 and 150 mM sodium chloride.\n(§6) Solubility: Not less than 10 mg/mL at 25 ℃.\n(§7) 5.2.2 Study Drug Strength and Manufacturer\n(§8) The IB I362 dru g produ ct is IBI362 for injection an d consists of 2 mg IB I362 and the […]\n(§9) contents are reconstituted with sterile water for injection to obtain a clear solution of […]\n(§10) ingredients tris (hydroxymethyl) aminomethane, mannitol, and sucrose.\" The vial contents are reconstituted with sterile water for injection to obtain a clear solution devoid […]\n(§11) The dru g product stren gt h used in this stud y was 2 mg/vial, and the placebo strengt h matched the drug product and was provided b y the Sponsor.\n(§12) The drug product and placebo should be stored under refrigerated conditions (2 ℃ […]\n(§13) 5.2.4 Mode of administration\n(§14) Both IBI362 and placebo will be administered by subcutaneous injection once a week. Each dose should be prepared and injected by the stud y nurse. See the Instructions for Use fo rdetails of the preparation and use of the study drug.\n(§15) 5.3.1 Prohibited Medications\n(§16) The following m edicatio ns and measur es ar e cont raindicated:\n(§17) 1. Growth hormone and its analogues;\n(§18) 2. Any systemic corticosteroid (including intravenous, oral, intra-articular) administered for ≥ 7 da ys. […]"}, "[6]": {"system": "Chinese adults with overweight or obesity", "details": "low dose cohorts; cited from earlier work", "protocol": "Summary Background Mazdutide (also known as IBI362 or LY3305677), a novel once-weekly glucagon-like peptide-1 (GLP-1) and glucagon receptor dual agonist, achieved 12-week body weight loss up to 6.4% at doses up to 6 mg in Chinese adults with overweight or obesity. We further explored the safety and efficacy of mazdutide dosed up to 9 mg and 10 mg. Methods In this randomised, placebo-controlled, multiple-ascending-dose phase 1b trial, we enrolled adults (aged 18-75 years, both inclusive) with overweight (body-mass index [BMI] ≥24 kg/m^2) accompanied by hyperphagia and/or at least one obesity-re ... || A PubMed search on July 4, 2022, with the terms “glucagon-like peptide-1″, [AND] “glucagon receptor”, [AND] “dual agonist”, in the Title or Abstract yielded 31 results. […] Mazdutide dosed up to 6 mg achieved 12-week mean body weight loss up to 6.4% in Chinese adults with overweight or obesity. || Mazdutide (also known as IBI362 or LY3305677) is a once-weekly mammalian oxyntomodulin analogue. […] In a phase 1b clinical trial in Chinese adults with overweight or obesity, mazdutide dosed up to 6 mg achieved 12-week mean body weight loss up to 6.4%.[11] Given the favourable safety profile and the robust body weight loss achieved in the low-dose cohort ... || (+ 2 further places)"}, "[7]": {"test": "Isoelectric point (PI) of the study drug", "type": "physicochemical", "details": "study protocol", "protocol": "as §2, §3, §4, §5, §6, §7, §8, §9, §10, §11, §12, §13, §14, §15, §16, §17, §18"}, "[8]": {"system": "Chinese adults with overweight or obesity", "test": "Immunogenicity: anti-drug antibodies and neutralizing antibodies, phase 1b trial", "type": "in vivo, human", "details": "for Participants who developed treatment-induced anti-mazdutide antibodies: n = 8", "protocol": "as §1"}, "[9]": {"details": "9 mg cohort, week 12, participants without type 2 diabetes"}, "[10]": {"details": "9 mg cohort (sc QW 3/6/9 mg, 4 wk each)"}, "[11]": {"details": "10 mg cohort (sc QW 2.5/5/7.5/10 mg, 4 wk each)"}}, "note": "Read-outs that look alike come from different tables or passages of the source."}
{"smiles": "CC(C)C[C@H](NC(=O)[C@H](CC(C)C)NC(=O)[C@H](Cc1c[nH]c2ccccc12)NC(=O)[C@H](CCC(=O)O)NC(=O)[C@@H](NC(=O)[C@H](Cc1ccccc1)NC(=O)[C@H](CCC(=O)O)NC(=O)[C@H](CCCCNC(=O)COCCOCCNC(=O)COCCOCCNC(=O)CC[C@H](NC(=O)CCCCCCCCCCCCCCCCCCC(=O)O)C(=O)O)NC(=O)[C@H](C)NC(=O)[C@H](CCCCN)NC(=O)[C@H](CCCCN)NC(=O)[C@H](CCC(=O)O)NC(=O)[C@H](CC(=O)O)NC(=O)[C@H](CC(C)C)NC(=O)[C@H](Cc1ccc(O)cc1)NC(=O)[C@H](CCCCN)NC(=O)[C@H](CO)NC(=O)[C@H](Cc1ccc(O)cc1)NC(=O)[C@H](CC(=O)O)NC(=O)[C@H](CO)NC(=O)[C@@H](NC(=O)[C@H](Cc1ccccc1)NC(=O)[C@@H](NC(=O)CNC(=O)[C@H](CCC(N)=O)NC(=O)C(C)(C)NC(=O)[C@@H](N)Cc1c[nH]cn1)[C@@H](C)O)[C@@H](C)O)C(C)C)C(=O)N[C@@H](CCC(=O)O)C(=O)NCC(=O)NCC(=O)N1CCC[C@H]1C(=O)N[C@@H](CO)C(=O)N[C@@H](CO)C(=O)NCC(N)=O", "note": "[Mazdutide]", "values": [{"measurement": "Participants with a 0.4% HbA1c reduction from baseline", "setting": "[1]; [9]", "value": "three"}, {"measurement": "Participants with a 0.8% HbA1c reduction from baseline", "setting": "[1]; [9]", "value": "two"}, {"measurement": "Participants with a 0.4% HbA1c reduction from baseline", "setting": "[1]; 10 mg cohort, week 16, participants without type 2 diabetes", "value": "two"}, {"measurement": "Metabolic parameters including triglycerides, low density lipoprotein cholesterol, total cholesterol and serum uric acid", "setting": "[1]; both dose regimens, compared with placebo", "value": "Greater improvements"}, {"measurement": "Non-diabetic participants with slight elevation in end-of-treatment HbA1c levels", "setting": "[1]; high-dose cohorts", "value": "two"}, {"measurement": "TEAE: Infections and infestations (system organ class)", "setting": "[2]; [10]", "value": "6 (75.0) n (%)"}, {"measurement": "TEAE: Upper respiratory tract infection", "setting": "[2]; [10]", "value": "3 (37.5) n (%)"}, {"measurement": "TEAE: Urinary tract infection", "setting": "[2]; [10]", "value": "4 (50) n (%)"}, {"measurement": "TEAE: Infections and infestations (system organ class)", "setting": "[2]; [11]", "value": "5 (62.5) n (%)"}, {"measurement": "TEAE: Upper respiratory tract infection", "setting": "[2]; [11]", "value": "4 (50) n (%)"}, {"measurement": "TEAE: Urinary tract infection", "setting": "[2]; [11]", "value": "2 (25) n (%)"}, {"measurement": "AUC(0-t)", "setting": "[3]; after first sc dose 2.5 mg", "value": 21800, "unit": "ng·h/mL"}, {"measurement": "Tmax", "setting": "[3]; after first sc dose 2.5 mg", "value": 72.3, "unit": "h"}, {"measurement": "Cmax", "setting": "[3]; after first sc dose 2.5 mg", "value": 179, "unit": "ng/mL"}, {"measurement": "AUC(0-t)", "setting": "[3]; after first sc dose 3 mg", "value": 31400, "unit": "ng·h/mL"}, {"measurement": "Tmax", "setting": "[3]; after first sc dose 3 mg", "value": 72.4, "unit": "h"}, {"measurement": "Cmax", "setting": "[3]; after first sc dose 3 mg", "value": 226, "unit": "ng/mL"}, {"measurement": "Participants with treatment-emergent adverse events", "setting": "[4]", "value": 100, "unit": "%"}, {"measurement": "Severity of treatment-emergent adverse events", "setting": "[4]", "value": "all mild or moderate in severity"}, {"measurement": "Solubility", "setting": "[5]; 20 mM Tris buffer at pH 8.0 and 150 mM sodium chloride, 25 ℃", "value": "Not less than 10 mg/mL"}, {"measurement": "Solubility Description", "setting": "[5]", "value": "Sparingly or slightly soluble"}, {"measurement": "Incidence of abdominal distension", "setting": "[6]", "value": 12.5, "unit": "%"}, {"measurement": "Incidence of diarrhoea", "setting": "[6]", "value": 37.5, "unit": "%"}, {"measurement": "Incidence of nausea", "setting": "[6]", "value": "up to 37.5%"}, {"measurement": "Incidence of vomiting", "setting": "[6]", "value": 12.5, "unit": "%"}, {"measurement": "PI", "setting": "[7]", "value": 5.2}, {"measurement": "Participants who developed treatment-induced anti-mazdutide antibodies", "setting": "[8]; 9 mg cohort", "value": "Two"}, {"measurement": "Participants who developed treatment-induced anti-mazdutide antibodies", "setting": "[8]; 10 mg cohort", "value": "four"}, {"measurement": "Participants who developed neutralizing antibodies", "setting": "[8]; 10 mg cohort, attenuated cAMP generation in CHO cells over-expressing human recombinant glucagon receptors", "value": "One"}]}
